The values below come from US3997518A, “2-Alkyl-4-carboxyalkyl-5-(3,3'-dimethyltriazeno)-imidazoles” (Beecham Group Limited, priority 1970, dated 1976).

Data set [1] has as its system R1 lymphoma. The experiment in a line: Activity against R1 lymphoma, increase in survival time (Table A). The data set is classed as in vivo, mice. The note with it: Mus musculus, ip, read-out: Medium % increase in survival time; for ILS at 32 mg/kg: 32 mg/kg i.p. daily day 3 to day 7; for ILS at 128 mg/kg: 128 mg/kg i.p. daily day 3 to day 7; for ILS at 33 mg/kg: 33 mg/kg i.p. daily day 3 to day 7; for ILS at 64 mg/kg: 64 mg/kg i.p. daily day 3 to day 7. As for the experimental part:
(§1) The R1 lymphoma is normally sensitive to anti-metabolites. Typically mice having a transplant of 1.5 × 10^6 tumour cells die from the metastisizing tumour on day 9, 10 or 11 after transplant.
(§2) The compounds illustrated below were dosed by the intra peritoneal route in a vehicle of 10% acetone in arachas oil daily from day 3 to day 7 after tumour transplant. The increase in survival time over control was measured.
(§3) The dose reported is that dose which gave the maximum increase in survival time. Lower doses gave less activity and higher doses are toxic.
(§4) The results are split into two sections (in Table A and Table B) because two slightly different strains of R1 lymphoma were used.

Data set [2] is described as follows: Dose at which 50% of the animals were killed (LD50). The note with it: mouse, in vivo, ip; i.p. dosing × 5. On the set-up: species or system mice. From the text:
(§5) The breadth of antitumour spectrum of the compounds of the invention in mice is illustrated by their activity in the ADJ/PC6 plasma cell tumour. This is a solid tumour sensitive to most alkylating agents. Good activity is rarely seen against this tumour and the R1 lymphoma.

Data set [3] deals with ADJ/PC6 plasma cell tumour. The data set is described as follows: ADJ/PC6 plasma cell tumour, inhibition of tumour weight. The note with it: i.p. dosing × 5; for ED90: Mus musculus, ADJ/PC6, ip, read-out: ID90 (the source's name); for Therapeutic Index: LD50 compared with ID90. The data set is classed as in vivo, mice.
Description: as §5

The subject of data set [4] is Friend leukaemia virus. The data set is described as follows: Friend Leukaemia, inhibition of splenomegally. In kind it is in vivo, mice. The note with it: sub-cutaneously 250 mg/kg/day on day -1, +1, +2 and +3 with respect to infection. The source says:
Activity of these compounds has also been shown in Friend Leukaemia. Friend leukaemia virus is a prolonged infection in mice produced splenomegally.

For data set [5], the system named is PC 6 tumour. The data set is described as follows: PC 6 tumour screen. In kind it is in vivo, mice.
Description: as §5
The test of example 91 was repeated using the PC 6 tumour screen.

Data set [6] relates to R1 lymphoma. The data set is described as follows: Activity against R1 lymphoma, increase in survival time (Table B, slightly different strain). The data set is classed as in vivo, mice. The note with it: for ILS at 128 mg/kg: 128 mg/kg i.p. daily day 3 to day 7. As for the experimental part:
as §1, §2, §3, §4

Data set [7] has as its system Staphylococus aureus. The experiment in a line: Antibacterial activity, MIC. The data set is classed as cell-based. The note with it: DST agar + 5% lysed horse blood. From the text:
(§6) Compounds of this invention have shown antibacterial activity. Thus the minimum inhibitory concentration (M.I.C.) of 4-carboxyethyl-5-(3,3-dimethyltriazeno)-2-phenylimidazole and the corresponding 2-methylimidazole in DST agar + 5% lysed horse blood are illustrated against the following bacteria.

Data set [8] deals with Streptococus heamolyticus. The experiment in a line: Antibacterial activity, MIC. In kind it is cell-based. The note with it: DST agar + 5% lysed horse blood.
Description: as §6

For data set [9], the system named is Candida albicans. The data set is described as follows: Antifungal activity, minimum inhibitory concentration. In kind it is cell-based. From the text:
(§7) Antifungal activity has been found in compounds of this invention. Thus 4-carboxyethyl-5-(3,3-dimethyltriazeno)-2-phenylimidazole has the following minimum inhibitory concentrations.

The subject of data set [10] is Trychopyton mentagrophytes. The data set is described as above. In kind it is cell-based.
Description: as §7

The test system of data set [11] is Candida neoformans. Described as above. The data set is classed as cell-based.
Description: as §7

Data set [12] deals with E. Coli. The experiment in a line: Antibacterial activity, MIC. The following applies: Escherichia coli; DST agar + 5% lysed horse blood. In kind it is cell-based.
Description: as §6

The test system of data set [13] is Proteus mirabilis. The data set is described as follows: Antibacterial activity, MIC. The data set is classed as cell-based. The note with it: DST agar + 5% lysed horse blood.
Description: as §6

In data set [14] the test system is Pseudomonas aeroginosa. The data set is described as follows: Antibacterial activity, MIC. The data set is classed as cell-based. The note with it: DST agar + 5% lysed horse blood.
Description: as §6

[15] abbreviates: dose at which 90% inhibition of tumour weight occurs.
The mark [16] stands for this setting: Table A strain, dose of maximum increase.
The mark [17] stands for this setting: Mus musculus, ip, Table B strain, 32 mg/kg i.p. daily day 3 to day 7, dose of maximum increase, read-out: Medium % increase in survival time.
Where [18] appears, read: Mus musculus, ip, Table B strain, dose of maximum increase, read-out: Medium % increase in survival time.

Converted amounts (≈) assume the structure as drawn.

For `COC(=O)c1nc(-c2ccccc2)[nH]c1N=NN(C)C`, the ILS at 16 mg/kg in data set [1] (Table A strain, 16 mg/kg i.p. daily day 3 to day 7, dose of maximum increase) is 400%.
Molecule `CCOC(=O)c1nc(-c2ccc(F)cc2)[nH]c1N=NN(C)C` [4-Carbethoxy-5-(3,3-dimethyltriazeno)-2-(p-fluorophenyl) imidazole] gave a median lethal dose (LD50) in data set [2] of 200 mg/kg. Further, the ED90 in [3] (setting [15]) is 20 mg/kg. For the same molecule, the “Therapeutic Index” value in data set [3] was 10.
Regarding `CCOC(=O)c1nc(-c2ccccc2)[nH]c1N=NN(C)C` [4-Carbethoxy-5-(3,3-dimethyl-triazeno)-2-phenyl imidazole], the LD50 in data set [2] amounted to 310 mg/kg. In addition, in data set [4], the “inhibition of the splenomegally” value is “complete inhibition of the splenomegally”. Also, the ILS at 32 mg/kg in data set [1] (setting [16]) was 300%. Also, the “Therapeutic Index” value is recorded as 27 in data set [5] (i.p. dosing), 11 in data set [5] (oral dosing) and 88 in data set [3]. The ED90 in [3] (setting [15]) is 3.5 mg/kg. Also, the ILS at 33 mg/kg in data set [6] (Mus musculus, ip, Table B strain, 33 mg/kg i.p. daily day 3 to day 7, dose of maximum increase, read-out: Medium % increase in survival time) came to 65%. Moreover, the MIC in data set [7] is 10 µg/mL; in [8], 1 µg/mL; in data set [9], 10 µg/mL (≈ 34.8 µM); in [10] it was 10 µg/mL (≈ 34.8 µM); in data set [11], 10 to 50 µg/mL (≈ 34.8 to 174 µM).
Consider `CCOC(=O)c1nc(-c2cccnc2)[nH]c1N=NN(C)C` [4-Carbethoxy-5-(3,3-dimethyltriazeno)-2-(3-pyridyl)imidazole], for which the ILS at 32 mg/kg in data set [1] (setting [16]) is 170%.
Consider `CCOC(=O)c1nc(-c2ccccc2F)[nH]c1N=NN(C)C` [4-Carboxyethyl-5-(3,3-dimethyltriazeno)-2-(2-fluorophenyl) imidazole], for which the ILS at 10 mg/kg in data set [1] (Table A strain, 10 mg/kg i.p. daily day 3 to day 7, dose of maximum increase) turned out to be 100%.
In the case of `CCOC(=O)c1nc(-c2ccc3ccccc3c2)[nH]c1N=NN(C)C` [4-Carboxyethyl-5-(3,3-dimethyltriazeno)-2-(2-naphthyl) imidazole], the ILS at 128 mg/kg in [1] (setting [16]) is 170%.
As for `CCOC(=O)c1nc(C)n(C)c1N=NN(C)C` [4-Carbethoxy-5-(3,3-dimethyltriazeno-1-2 dimethylimidazole], the “Medium % increase in survival time” value in data set [6] (Table B strain, 32 mg/kg i.p. daily day 3 to day 7, dose of maximum increase) came out at 65%.
Consider `CCOC(=O)c1nc(C)[nH]c1N=NN(C)C` [4-Carbethoxy-5-(3,3-dimethyltriazeno)-2-methylimidazole], for which the “Therapeutic Index” value in data set [5] (i.p. dosing) was 47; in data set [5] (oral dosing), 40. Besides, the ILS at 32 mg/kg in data set [6] (setting [17]) was 90%. The MIC in [7] is 7.5 µg/mL; in data set [12], 15 µg/mL; in data set [13], 15 µg/mL; in [14], 62 µg/mL.
For the molecule `CCOC(=O)c1nc(C2CCCCC2)[nH]c1N=NN(C)C` [4-Carbethoxy-5-(3,3-dimethyltriazeno)-2-cyclohexyl imidazole], the ILS at 21 mg/kg in data set [6] (Mus musculus, ip, Table B strain, 21 mg/kg i.p. daily day 3 to day 7, dose of maximum increase, read-out: Medium % increase in survival time) stood at 85%.
Consider `CCOC(=O)c1nc(CC)[nH]c1N=NN(C)C` [4-Carbethoxy-5-(3,3-dimethyltriazeno)-2-ethyl imidazole], for which the ILS at 32 mg/kg in data set [6] (setting [17]) was 70%.
Consider `CCOC(=O)c1nc(-c2ccsc2)[nH]c1N=NN(C)C` [4-Carboxyethyl-5-(3,3-dimethyltriazeno)-2-(3-thienyl) imidazole], for which the ILS at 33 mg/kg in data set [1] (setting [16]) is 200%.
With `CCOC(=O)c1nc(COc2ccc(OC)cc2)[nH]c1N=NN(C)C` [4-Carbethoxy-5-(3,3-dimethyltriazeno)-2-p-methoxy-phenoxymethylimidazole], the ILS at 64 mg/kg in data set [1] (setting [16]) is above 150%.
In the case of `CCOC(=O)c1nc(-c2ccc(OC)cc2)[nH]c1N=NN(C)C` [4-Carboxyethyl-5-(3,3-dimethyltriazeno)-2-(4-methoxyphenyl) imidazole], the ILS at 33 mg/kg in data set [1] (setting [16]) was found to be 50%.
Turning to `CCOC(=O)c1nc(-c2cccc(C)c2)[nH]c1N=NN(C)C` [4-Carboxyethyl-5-(3,3-dimethyltriazeno)-2-(3-methyl-phenyl) imidazole], the ILS at 128 mg/kg in data set [1] (setting [16]) came out at 150%.
Take `CN(Cc1cnc2nc(N)nc(N)c2n1)c1ccc(C(=O)N[C@@H](CCC(=O)O)C(=O)O)cc1` [Methotrexate, 4-amino-10-methyl folic acid, reference compound]: the ILS at 2 mg/kg amounted to 100% in data set [1] and 60% in data set [6] (Mus musculus, ip, read-out: Medium % increase in survival time). Further, in data set [3] (setting [15]), the ID90 entry was “Inactive”.
As to `CCOC(=O)c1nc(Cc2ccccc2)[nH]c1N=NN(C)C` [4-Carbethoxy-5-(3,3-di-methyl-triazeno)-2-benzyl imidazole], the ILS at 64 mg/kg in data set [1] (setting [16]) was found to be 200%.
In data set [2], `CN(C)N=Nc1[nH]c(-c2ccccc2)nc1C(N)=O` [4-Carboxamido-5-(3,3-dimethyltriazeno)-2-phenylimidazole] registered an LD50 of 240 mg/kg. In [1] (Table A strain, 50 mg/kg i.p. daily day 3 to day 7, dose of maximum increase), the ILS at 50 mg/kg came out at 80%. The ED90 in data set [3] (setting [15]) is 16 mg/kg. The “Therapeutic Index” value in data set [3] is recorded as 15.
For `Cc1nc(C(N)=O)c(N=NN(C)C)[nH]1` [4-Carboxamido-5-(3,3-dimethyltriazeno)-2-methyl imidazole], the ILS at 128 mg/kg in [6] (setting [18]) is 60%.
On to `CCOC(=O)c1nc(-c2ccc(OC)c(OC)c2)[nH]c1N=NN(C)C` [4-Carboxyethyl-5-(3,3-dimethyltriazeno)-2-(3,4-dimethoxy-phenyl) imidazole], for which the ILS at 33 mg/kg in data set [1] (setting [16]) was determined as 200%.
On to `CCOC(=O)c1nc(S)[nH]c1N=NN(C)C` [4-Carbethoxy-5-(3,3-dimethyltriazeno)-2-mercapto imidazole], for which the ILS at 128 mg/kg in data set [6] (setting [18]) came to 140%.
On to `COC(=O)c1nc(S)[nH]c1N=NN(C)C` [4-Carbmethoxy-5-(3,3-dimethyltriazeno)-2-mercapto imidazole], for which the ILS at 32 mg/kg in data set [6] (setting [17]) is 90%.
For the molecule `CCOC(=O)c1nc(COc2ccccc2)[nH]c1N=NN(C)C` [4-Carbethoxy-5-(3,3-dimethyltriazeno)-2-phenoxymethyl imidazole], the ILS at 64 mg/kg in data set [1] (setting [16]) stood at 85%.
The same measure, in the same setting: then `CCOC(=O)Cc1nc(C(=O)OCC)c(N=NN(C)C)[nH]1` [4-Carbethoxy-5-(3,3-dimethyltriazeno)-2-carbethoxymethyl imidazole], with 400%.
Consider `CCOC(=O)c1nc(N(C)C)[nH]c1N=NN(C)C` [4-Carbethoxy-5-(3,3-dimethyltriazeno)-2-dimethylamino imidazole], for which, in data set [6] (Mus musculus, ip, Table B strain, 16 mg/kg i.p. daily day 3 to day 7, dose of maximum increase, read-out: Medium % increase in survival time), the ILS at 16 mg/kg was 45%.
As for `CCCc1nc(C(=O)OCC)c(N=NN(C)C)[nH]1` [4-Carbethoxy-5-(3,3-dimethyltriazeno)-2-n propyl imidazole], the ILS at 32 mg/kg in data set [6] (setting [17]) came out at 130%.
For the molecule `CCOC(=O)c1nc(-c2ccc(Cl)cc2)[nH]c1N=NN(C)Cc1ccccc1` [4-Carboxyethyl-5-(3-methyl-3-benzyltriazeno)-2-(4-chlorophenyl)imidazole], the ILS at 100 mg/kg in data set [1] (Table A strain, 100 mg/kg i.p. daily day 3 to day 7, dose of maximum increase) stood at 40%.
Regarding `CN(C)N=Nc1[nH]c(-c2cccs2)nc1C(N)=O` [4-Carboxamido-5-(3,3-dimethyltriazeno)-2-(2-thienyl)imidazole], the ILS at 128 mg/kg in [1] (setting [16]) is 50%.

The term LD50 denotes the dose expected to kill half of the subjects tested. High values mean lower toxicity, low ones greater toxicity. By MIC is commonly meant the lowest concentration found to suppress growth.
